Values of other authors as cited in patent US20040259736A1, “Biodegradable solid preparation of a phytopathologicalagent with delayed active substance release” (priority 2001, published 2004).
In brackets after ≈: the same amount, converted by molar mass.

SMILES | solubility in water [µg/mL] | solubility in water (in words)
CNC(=O)C(=NOC)c1ccccc1CO/N=C(\C)C(=NOC)/C(C)=N/OC [II-4, N-Methyl-2-(methoxyimino)-2-{2-[(3E,6E)-5-(methoxyimino)-4,6-dimethyl-2,8-dioxa-3,7-diazanona-3,6-dien-1-yl]phenyl}-acetamide] | 80 (≈ 204 µM) | –
CNC(=N[N+](=O)[O-])NCC1CCOC1 (stereo not shown) [MTI-446] | 54000 (≈ 267000 µM) | freely soluble in water
CN/C(=N\[N+](=O)[O-])NCc1cnc(Cl)s1 [Clothianidin, (E)-1-(2-chlorothiazol-5-ylmethyl)-3-methyl-2-nitroguanidine] | 270 (≈ 1080 µM) | –
